Assay results: patent US20230227484A1, “PYRIMIDINE COMPOUND AS AXL INHIBITOR” (NANJING CHIA TAI TIANQING PHARMACEUTICAL CO., LTD., priority 2020, published 2023)

Target: T1, AXL kinase (Homo sapiens, UniProt P30530)
T1 construct: purchased Carna 08-107
T1 sequence (P30530 473-894 limits assumed): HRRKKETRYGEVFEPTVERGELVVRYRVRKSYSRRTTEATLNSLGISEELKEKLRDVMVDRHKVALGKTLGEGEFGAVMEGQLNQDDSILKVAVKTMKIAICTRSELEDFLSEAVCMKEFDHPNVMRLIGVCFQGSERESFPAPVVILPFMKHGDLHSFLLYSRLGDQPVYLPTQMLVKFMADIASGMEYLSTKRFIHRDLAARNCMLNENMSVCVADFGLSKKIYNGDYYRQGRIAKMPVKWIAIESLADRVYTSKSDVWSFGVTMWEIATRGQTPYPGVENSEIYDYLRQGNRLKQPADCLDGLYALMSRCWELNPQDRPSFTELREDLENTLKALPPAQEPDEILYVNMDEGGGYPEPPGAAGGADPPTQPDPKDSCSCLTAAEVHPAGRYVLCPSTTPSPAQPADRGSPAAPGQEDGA
Assay: Inhibitory activity of compound against AXL kinase (HTRF KinEASE)
Assay type: biochemical
Conditions: AXL enzyme (Carna, 08-107), ATP 15 μM; "<" means below detection limit of the test
Procedure: a) AXL enzyme (Carna, 08-107) configuration and addition: a 1×enzyme buffer (200 μL of Enzymatic buffer kinase 5×, 10 μL of 500 mM MgCl2, 10 μL of 100 mM DTT and 6.26 μL of 2500 nM SEB are added with […] of H2O, and prepared into 1 ml of 1× enzyme buffer) is used. AXL enzyme is diluted from 33.33 ng/uL to 0.027 ng/μL (1.67×, final conc.=0.016 ng/uL), a BioTek (MultiFlo FX) automatic liquid dispenser is used, and 6 μL of enzyme solution having a 1.67-fold final concentration is added respectively to compound wells and positive control wells; and 6 μL of 1×Enzymatic buffer is added to negative control wells.
b) Compound preparation and addition: the compounds and positive drugs prepared in the examples are diluted from 10 mM to 100 μM by DMSO, and titrated with a compound titrator (Tecan, D300e). The titrated solution is automatically sprayed by the titrator to each well to reach a required concentration, wherein the first concentration is 1 μM, and after ½ log dilution, a total of 8 concentrations are obtained. The resulting mixture is centrifuged at 2500 rpm for 30 s and incubated at room temperature for 15 min.
c) Preparation and addition of ATP and substrate: ATP (Sigma, A7699) is diluted with 1× enzyme buffer from 10 mM to 75 μM (5×), and the final concentration is 15 μM; the substrate TK Substrate 3-biotin (Cisbio, 61TK0BLC) is diluted with 1× enzyme buffer from 500 μM to 5 μM (5×), andthe final concentration is […]; ATP and the substrate are mixed in equal volume to obtain a mixed solution; the mixed solution is added to each well at 4 μL by using a BioTek automatic dispenser; centrifuged at 2500 rpm for 30 s, and reacted at 25° C. for 45 min.
d) Pirparation and addition of detection reagent: Streptavidin-XL665 (Cisbio, 610SAXLG) is diluted with HTRF KinEASE detection buffer (cisbio) from 16.67 μM to 250 nM (4×), and the final concentration is 62.5 nM; TK Antibody-Cryptate (Cisbio) is diluted with HTRF KinEASE detection buffer (cisbio) from 100× to 5×, and the final concentration is 1×; XL665 and Antibody are mixed in equal volume; the mixed solution is added to each well at 10 μL by using the BioTek automatic dispenser, centrifuged at 2500 rpm for 30 s, and reacted at 25° C. for 1 h. After the reaction is completed, the resulting product is detected by a multi-function plate reader HTR1p
GraphPad Prism 5 software log (inhibitor) vs. response-Variable slope is used to fit a dose-response curve to obtain the IC50 value of the compound to the inhibition of AXL kinase.
The calculation formula of the inhibition rate is as follows: […]

In the case of `COCc1ccc(Nc2nc(Nc3ccc4c(c3)CCC(N3CC5CC3C5)CC4)ncc2Cl)c(P(C)(C)=O)c1` (single isomer, unassigned) [Example 116 Isomer 116-2, (2-((2-((7-(2-azabicyclo[2.1.1]hexan-2-yl)-6,7,8,9-tetrahydro-5H-benzo[7]annulen-2-yl)amino)-5-chloropyrimidin-4-yl)amino)-5-(methoxymethyl)phenyl)dimethyl phosphine oxide], the IC50 is reported as 96.8 nM.

Work on `CN(C)S(=O)(=O)c1cccc(Nc2nc(Nc3ccc4c(c3)CC[C@@H](N3CCCC3)CC4)ncc2Cl)c1` [Example 2, (S)-3-((5-chloro-2-((7-(pyrrolidin-1-yl)-6,7,8,9-tetrahydro-5H-benzo[7]annulen-2-yl)amino)pyrimidin-4-yl)amino)-N,N-dimethyl benzenesulfonamide] yielded an IC50 of 13.4 nM.

For `CN(C)S(=O)(=O)c1ccc(Nc2nc(Nc3ccc4c(c3)CC[C@@H](N3CCCC3)CC4)ncc2Cl)cc1` [Example 3, (S)-4-((5-chloro-2-((7-(pyrrolidin-1-yl)-6,7,8,9-tetrahydro-5H-benzo[7]annulen-2-yl)amino)pyrimidin-4-yl)amino)-N,N-dimethyl benzenesulfonamide], the IC50 was 23.6 nM.

Compound `O=S(=O)(c1ccccc1Nc1nc(Nc2ccc3c(c2)CC[C@@H](N2CCCC2)CC3)ncc1Cl)N1CCCC1` [Example 4, (S)-5-chloro-N^2-(7-(pyrrolidin-1-yl)-6,7,8,9-tetrahydro-5H-benzo[7]annulen-2-yl)-N^4-(2-(pyrrolidin-1-ylsulfo)phenyl)pyrimidine-2,4-diamine] has an IC50 of less than 0.11 nM.

In the case of `O=S(=O)(c1cccc(Nc2nc(Nc3ccc4c(c3)CC[C@@H](N3CCCC3)CC4)ncc2Cl)c1)N1CCCC1` [Example 5, (S)-5-chloro-N^2-(7-(pyrrolidin-1-yl)-6,7,8,9-tetrahydro-5H-benzo[7]annulen-2-yl)-N^4-(3-(pyrrolidin-1-ylsulfo)phenyl)pyrimidine-2,4-diamine], the IC50 is reported as 20.7 nM.

In the case of `CN(C)C(=O)c1occc1Nc1nc(Nc2ccc3c(c2)CC[C@@H](N2CCCC2)CC3)ncc1Cl` [Example 7, (S)-3-((5-chloro-2-((7-(pyrrolidin-1-yl)-6,7,8,9-tetrahydro-5H-benzo[7]annulen-2-yl)amino)pyrimidin-4-yl)amino)-N,N-dimethylfuran-2-carboxamide], the IC50 is reported as 7.74 nM.

`CC(C)Oc1ccccc1Nc1nc(Nc2ccc3c(c2)CC[C@@H](N2CCCC2)CC3)ncc1Cl` [Example 8, (S)-5-chloro-4-(2-isopropoxyl)anilino-2-(7-(pyrrolidin-1-yl)-6,7,8,9-tetrahydro-5H-benzo[7]annulen-2-yl)pyrimidine] gave an IC50 of 8.28 nM.

With `Clc1cnc(Nc2ccc3c(c2)CC[C@@H](N2CCCC2)CC3)nc1Nc1cccc2c1OCO2` [Example 9, (S)-4-(benzo[d][1,3]dioxo-4-yl)-5-chloro-2-(7-(pyrrolidin-1-yl)-6,7,8,9-tetrahydro-5H-benzo[7]annulen-2-yl)pyrimidine-2,4-diamine] the IC50 was 21.9 nM.

In the case of `N#CCc1cccc(Nc2nc(Nc3ccc4c(c3)CC[C@@H](N3CCCC3)CC4)ncc2Cl)c1` [Example 11, (S)-2-(3-((5-chloro-2-((7-(pyrrolidin-1-yl)-6,7,8,9-tetrahydro-5H-benzo[7]annulen-2-yl)amino)pyrimidin-4-yl)amino)phenyl)acetonitrile], the IC50 is reported as 8.18 nM.

Compound `Cc1cnc(-c2ccccc2Nc2nc(Nc3ccc4c(c3)CC[C@@H](N3CCCC3)CC4)ncc2Cl)o1` [Example 17, (S)-5-chloro-N^4-(2-(5-methyloxazol-2-yl)phenyl)-N^2-(7-(pyrrolidin-1-yl)-6,7,8,9-tetrahydro-5H-benzo[7]annulen-2-yl)pyrimidine-2,4-diamine] has an IC50 of 27.9 nM.

`CNC(=O)c1cccnc1Nc1nc(Nc2ccc3c(c2)CC[C@@H](N2CCCC2)CC3)ncc1Cl` [Example 21, (S)-2-((5-chloro-2-((7-(pyrrolidin-1-yl)-6,7,8,9-tetrahydro-5H-benzo[7]annulen-2-yl)amino)pyrimidin-4-yl)amino)-N-methylnicotinamide] showed an IC50 of 6.53 nM.

In the case of `CNC(=O)c1ncsc1Nc1nc(Nc2ccc3c(c2)CC[C@@H](N2CCCC2)CC3)ncc1Cl` [Example 26, (S)-5-((5-chloro-2-((7-(pyrrolidin-1-yl)-6,7,8,9-tetrahydro-5H-benzo[7]annulen-2-yl)amino)pyrimidin-4-yl)amino)-N-methylthiazole-4-carboxamide], the IC50 is reported as 7.21 nM.

Compound `COC(=O)c1ccncc1Nc1nc(Nc2ccc3c(c2)CC[C@@H](N2CCCC2)CC3)ncc1Cl` [Example 27] has an IC50 of 19 nM.

`CNC(=O)c1ncccc1Nc1nc(Nc2ccc3c(c2)CC[C@@H](N2CCCC2)CC3)ncc1Cl` [Example 33, (S)-3-((5-chloro-2-((7-(pyrrolidin-1-yl)-6,7,8,9-tetrahydro-5H-benzo[7]annulen-2-yl)amino)pyrimidin-4-yl)amino)-N-methylpicolinamide] gave an IC50 of 5.15 nM.

`CNC(=O)c1cc(C(F)(F)F)ccc1Nc1nc(Nc2ccc3c(c2)CC[C@@H](N2CCCC2)CC3)ncc1Cl` [Example 35, (S)-2-((5-chloro-2-((7-(pyrrolidin-1-yl)-6,7,8,9-tetrahydro-5H-benzo[7]annulen-2-yl)amino)pyrimidin-4-yl)amino)-N-methyl-5-(trifluoromethyl)benzamide] showed an IC50 of 1.21 nM.

`COCCNC(=O)c1ccccc1Nc1nc(Nc2ccc3c(c2)CC[C@@H](N2CCCC2)CC3)ncc1Cl` [Example 38, (S)-2-((5-chloro-2-((7-(pyrrolidin-1-yl)-6,7,8,9-tetrahydro-5H-benzo[7]annulen-2-yl)amino)pyrimidin-4-yl)amino)-N-(2-methoxyethyl)benzamide] was tested, and the IC50 was 6.24 nM.

Work on `CNC(=O)c1c(Nc2nc(Nc3ccc4c(c3)CC[C@@H](N3CCCC3)CC4)ncc2Cl)cc[nH]c1=O` [Example 42, (S)-4-((5-chloro-2-((7-(pyrrolidin-1-yl)-6,7,8,9-tetrahydro-5H-benzo[7]annulen-2-yl)amino)pyrimidin-4-yl)amino)-N-methyl-2-oxo-1,2-dihydropyridine-3-carboxamide] yielded an IC50 of 14.6 nM.

Work on `CNC(=O)c1cnc(OC)cc1Nc1nc(Nc2ccc3c(c2)CC[C@@H](N2CCCC2)CC3)ncc1Cl` [Example 43, (S)-4-((5-chloro-2-((7-(pyrrolidin-1-yl)-6,7,8,9-tetrahydro-5H-benzo[7]annulen-2-yl)amino)pyrimidin-4-yl)amino)-6-methoxyl-N-methylnicotinamide] yielded an IC50 of 9.87 nM.

In the case of `CNC(=O)c1c(Nc2nc(Nc3ccc4c(c3)CC[C@@H](N3CCCC3)CC4)ncc2Cl)ccnc1OC` [Example 44, (S)-4-((5-chloro-2-((7-(pyrrolidin-1-yl)-6,7,8,9-tetrahydro-5H-benzo[7]annulen-2-yl)amino)pyrimidin-4-yl)amino)-2-methoxyl-N-methylnicotinamide], the IC50 is reported as 1.47 nM.

Work on `CNC(=O)c1c(Nc2nc(Nc3ccc4c(c3)CC[C@@H](N3CCCC3)CC4)ncc2Cl)ccc2nccnc12` [Example 48, (S)-6-((5-chloro-2-((7-(pyrrolidin-1-yl)-6,7,8,9-tetrahydro-5H-benzo[7]annulen-2-yl)amino)pyrimidin-4-yl)amino)-N-methylquinoxaline-5-carboxamide] yielded an IC50 of 0.42 nM.

Compound `CS(=N)(=O)c1ccccc1Nc1nc(Nc2ccc3c(c2)CC[C@@H](N2CCCC2)CC3)ncc1Cl` (stereo partly drawn) [Example 50, (2-((5-chloro-2-(((S)-7-(pyrrolidin-1-yl)-6,7,8,9-tetrahydro-5H-benzo[7]annulen-2-yl)amino)pyrimidin-4-yl)amino)phenyl)(imino)(methyl)-λ^6-sulfanone] has an IC50 of 2.16 nM.

With `CP(C)(=O)c1cc(C#N)ccc1Nc1nc(Nc2ccc3c(c2)CC[C@@H](N2CCCC2)CC3)ncc1Cl` [Example 54, (S)-4-((5-chloro-2-((7-(pyrrolidin-1-yl)-6,7,8,9-tetrahydro-5H-benzo[7]annulen-2-yl)amino)pyrimidin-4-yl)amino)-3-(dimethylphosphoryl)benzonitrile] the IC50 was 3.1 nM.
